In patent US12071430B2 (The Johns Hopkins University, priority 2011, dated 2024):
“Also recorded” adds a separate entry of the source.

What was measured:
[1] = molecular target: T1, CYP3A4 (Homo sapiens, UniProt P08684); experiment: CYP3A4 enzyme assay (Vivid CYP3A4 Green Screening Kit); format: in vitro ADME; settings: for CYP3A4 Inhibition (compared to intracozanole at 1 um): % enzyme inhibition at 1 uM drug / % enzyme inhibition at 1 uM itraconazole
T1 construct: purchased ThermoFisher P2857; host or cells: baculosomes (insect-cell microsomes, own knowledge)
T1 sequence (P08684 whole entry): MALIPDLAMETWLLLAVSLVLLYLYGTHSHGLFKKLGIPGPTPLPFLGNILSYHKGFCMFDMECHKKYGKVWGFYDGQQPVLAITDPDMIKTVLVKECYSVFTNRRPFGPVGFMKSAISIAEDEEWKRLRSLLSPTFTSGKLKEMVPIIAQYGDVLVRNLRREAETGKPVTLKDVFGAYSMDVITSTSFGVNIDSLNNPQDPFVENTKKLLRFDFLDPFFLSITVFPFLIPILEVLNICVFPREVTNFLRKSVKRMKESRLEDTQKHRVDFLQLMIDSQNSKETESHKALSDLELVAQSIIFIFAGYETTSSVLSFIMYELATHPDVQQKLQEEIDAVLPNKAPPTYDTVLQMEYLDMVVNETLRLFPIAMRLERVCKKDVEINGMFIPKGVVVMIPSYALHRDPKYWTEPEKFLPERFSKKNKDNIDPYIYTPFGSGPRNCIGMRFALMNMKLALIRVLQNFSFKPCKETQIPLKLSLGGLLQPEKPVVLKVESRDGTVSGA
Procedure: And CYP3A4 inhibition was initially determined using a cell-free fluorescence-based assay at a final concentration of 1 μM (Table 2).
CYP3A4 enzyme assay. CYP3A4 enzyme activity was tested using Vivid™ CYP3A4 Green Screening Kit (ThermoFisher, #P2857) using the manufacturer's protocol. Briefly, CYP3A4 baculosomes and drugs were incubated 10 min at 37° C. Then Vivid® Substrates were added and the fluorescence (ex/em:485/520) were read every 1 min for 60 minute.

[2] = system: HUVEC; experiment: HUVEC proliferation, [3H]-thymidine incorporation assay; format: cell-based, human; settings: for Proliferation (IC50/IC50 Itra): HUVEC IC50 relative to itraconazole; for IC50: Homo sapiens, [3H]-thymidine incorporation, unit inferred, values in μM, read-out: Proliferation IC50
Procedure: The inhibitory effects of the new analogs on HUVEC proliferation were measured using a [3H]-thymidine incorporation assay. The log P values, used as an indicator of lipophilicity, were calculated using ALOGPS2.1 software. Aqueous solubility is a key physiochemical property relevant for oral absorption. We determined the solubility of each analog in 0.001 N HCl (pH=3), which represents the acidic human gastric fluid.
HUVEC Culture and Proliferation Assays. HUVEC (Lonza) were grown in EGM-2 bullet kit media (Lonza) and used at passage eight or lower. The H thymidine incorporation assays were conducted as previously described. Briefly, cells were seeded on 96-well plate at a concentration of 2000 cells/well and allowed to settle overnight. Drugs were added to each well in triplicate. After 24 hours, cells were treated with 1 μCi of [3H] thymidine for 6 h. Then cells were harvested and transferred to filtermats. The scintillation were counted and IC50 were determined using Prism software (version 6.0).

Row | CYP3A4 Inhibition (compared to intracozanole at 1 um) [1] | SMILES | HUVEC proliferation / anti-angiogenic potency compared to itraconazole, in words ([2]; HUVEC) | Proliferation (IC50/IC50 Itra) [2] | CYP3A4 inhibition, in words ([1]; dose response or compared with itraconazole) | IC50 ([2]; HUVEC) [µM]
1 | 1.18 | CCC(C)n1ncn(-c2ccc(N3CCN(c4ccc(OC[C@@H]5CO[C@@](Cn6ccnc6)(c6ccc(Cl)cc6Cl)O5)cc4)CC3)cc2)c1=O (stereo partly drawn) [Compound 33, 4-(4-(4-(4-(((2S,4R)-2-((1H-imidazol-1-yl)methyl)-2-(2,4-dichlorophenyl)-1,3-dioxolan-4-yl)methoxy)phenyl)piperazin-1-yl)phenyl)-1-sec-butyl-1H-1,2,4-triazol-5(4H)-one] | higher potency | 0.5 |  | 
2 | No inhibition | CCC(C)n1ncn(-c2ccc(N3CCN(c4ccc(OC[C@@H]5CO[C@@](CC6CCCC6)(c6ccc(Cl)cc6Cl)O5)cc4)CC3)cc2)c1=O (stereo partly drawn) [Compound 61, 1-sec-butyl-4-(4-(4-(4-(((2R,4R)-2-(cyclopentylmethyl)-2-(2,4-dichlorophenyl)-1,3-dioxolan-4-yl)methoxy)phenyl)piperazin-1-yl)phenyl)-1H-1,2,4-triazol-5(4H)-one] |  | 3.0 |  | 
3 | 0.21 | CCC(C)n1ncn(-c2ccc(N3CCN(c4ccc(OC[C@@H]5CO[C@@](CN6CCN(C)CC6)(c6ccc(Cl)cc6Cl)O5)cc4)CC3)cc2)c1=O (stereo partly drawn) [Compound 65, 1-(sec-butyl)-4-(4-(4-(4-(((2S,4R)-2-(2,4-dichlorophenyl)-2-((4-methylpiperazin-1-yl)methyl)-1,3-dioxolan-4-yl)methoxy)phenyl)piperazin-1-yl)phenyl)-1H-1,2,4-triazol-5(4H)-one] |  | 3.8 |  | 
4 | 1.18 | CCC(C)n1ncn(-c2ccc(N3CCN(c4ccc(OC[C@@H]5CO[C@@](Cn6cnc(C)c6)(c6ccc(Cl)cc6Cl)O5)cc4)CC3)cc2)c1=O (stereo partly drawn) [Compound 38, 1-sec-butyl-4-(4-(4-(4-(((2S,4R)-2-(2,4-dichlorophenyl)-2-((4-methyl-1H-imidazol-1-yl)methyl)-1,3-dioxolan-4-yl)methoxy)phenyl)piperazin-1-yl)phenyl)-1H-1,2,4-triazol-5(4H)-one] |  | 0.6 |  | 
5 | No inhibition | CCC(C)n1ncn(-c2ccc(N3CCN(c4ccc(OC[C@@H]5CO[C@@](Cn6cnc(C(F)(F)F)n6)(c6ccc(Cl)cc6Cl)O5)cc4)CC3)cc2)c1=O (stereo partly drawn) [Compound 51, 1-sec-butyl-4-(4-(4-(4-(((2S,4R)-2-(2,4-dichlorophenyl)-2-((3-(trifluoromethyl)-1H-1,2,4-triazol-1-yl)methyl)-1,3-dioxolan-4-yl)methoxy)phenyl)piperazin-1-yl)phenyl)-1H-1,2,4-triazol-5(4H)-one] |  | 1.6 | reduced potency; also recorded: eliminated CYP3A4 inhibition | 
6 | 0.27 | CCC(C)n1ncn(-c2ccc(N3CCN(c4ccc(OC[C@@H]5CO[C@@](Cn6c(C)cnc6C)(c6ccc(Cl)cc6Cl)O5)cc4)CC3)cc2)c1=O (stereo partly drawn) [Compound 41, 1-(sec-butyl)-4-(4-(4-(4-(((2S,4R)-2-(2,4-dichlorophenyl)-2-((2,5-dimethyl-1H-imidazol-1-yl)methyl)-1,3-dioxolan-4-yl)methoxy)phenyl)piperazin-1-yl)phenyl)-1H-1,2,4-triazol-5(4H)-one] |  | 4.5 |  | 0.765
7 | 1.09 | CCC(C)n1ncn(-c2ccc(N3CCN(c4ccc(OC[C@@H]5CO[C@@](CN6CCNCC6)(c6ccc(Cl)cc6Cl)O5)cc4)CC3)cc2)c1=O (stereo partly drawn) [Compound 66, 1-(sec-butyl)-4-(4-(4-(4-(((2S,4R)-2-(2,4-dichlorophenyl)-2-(piperazin-1-ylmethyl)-1,3-dioxolan-4-yl)methoxy)phenyl)piperazin-1-yl)phenyl)-1H-1,2,4-triazol-5(4H)-one] |  | 2.5 |  | 
8 | No inhibition | CCC(C)n1ncn(-c2ccc(N3CCN(c4ccc(OC[C@@H]5CO[C@@](Cc6ccccc6)(c6ccc(Cl)cc6Cl)O5)cc4)CC3)cc2)c1=O (stereo partly drawn) [Compound 60, 4-(4-(4-(4-(((2R,4R)-2-benzyl-2-(2,4-dichlorophenyl)-1,3-dioxolan-4-yl)methoxy)phenyl)piperazin-1-yl)phenyl)-1-sec-butyl-1H-1,2,4-triazol-5(4H)-one] |  | 3.0 |  | 0.513
9 | 0.03 | CCC(C)n1ncn(-c2ccc(N3CCN(c4ccc(OC[C@@H]5CO[C@@](CBr)(c6ccc(Cl)cc6Cl)O5)cc4)CC3)cc2)c1=O (stereo partly drawn) [Compound 57, 4-(4-(4-(4-(((2S,4R)-2-(bromomethyl)-2-(2,4-dichlorophenyl)-1,3-dioxolan-4-yl)methoxy)phenyl)piperazin-1-yl)phenyl)-1-sec-butyl-1H-1,2,4-triazol-5(4H)-one] |  | 3.0 |  | 0.569
10 | No inhibition | CCC(C)n1ncn(-c2ccc(N3CCN(c4ccc(OC[C@@H]5CO[C@@](CN(C)C)(c6ccc(Cl)cc6Cl)O5)cc4)CC3)cc2)c1=O (stereo partly drawn) [Compound 64, 1-(sec-butyl)-4-(4-(4-(4-(((2S,4R)-2-(2,4-dichlorophenyl)-2-((dimethylamino)methyl)-1,3-dioxolan-4-yl)methoxy)phenyl)piperazin-1-yl)phenyl)-1H-1,2,4-triazol-5(4H)-one] |  | 8.8 |  | 
11 | No inhibition | CCC(C)n1ncn(-c2ccc(N3CCN(c4ccc(OC[C@@H]5COC(c6ccc(Cl)cc6Cl)O5)cc4)CC3)cc2)c1=O (stereo partly drawn) [Compound 62, 1-sec-butyl-4-(4-(4-(4-(((4R)-2-(2,4-dichlorophenyl)-1,3-dioxolan-4-yl)methoxy)phenyl)piperazin-1-yl)phenyl)-1H-1,2,4-triazol-5(4H)-one] |  | 1.9 |  | 
12 | 0.2 | CCC(C)n1ncn(-c2ccc(N3CCN(c4ccc(OC[C@@H]5CO[C@@](Cn6ncnn6)(c6ccc(Cl)cc6Cl)O5)cc4)CC3)cc2)c1=O (stereo partly drawn) [Compound 49, 4-(4-(4-(4-(((2S,4R)-2-((2H-tetrazol-2-yl)methyl)-2-(2,4-dichlorophenyl)-1,3-dioxolan-4-yl)methoxy)phenyl)piperazin-1-yl)phenyl)-1-sec-butyl-1H-1,2,4-triazol-5(4H)-one] |  | 0.7 |  | 0.124
